According to PMC7031696 (Cell chemical biology, 2019):

System: 3D7-MR4 trophozoite parasite-infected RBCs
Experiment: Metabolomic profiling (hydrophilic metabolite changes, UHPLC-MS)
Assay type: cell-based, Plasmodium falciparum

Substance: Ferroquine [reference compound]
- Log2(fold changes) adenosine (metabolite adenosine, log2 fold change): 0.0000
- Log2(fold changes) alanine/sarcosine (metabolite alanine/sarcosine, log2 fold change): 0.0137
- Log2(fold changes) anthranilate (metabolite anthranilate, log2 fold change): 0.0000
- Log2(fold changes) arginine (metabolite arginine, log2 fold change): 0.0962
- Log2(fold changes) asparagine (metabolite asparagine, log2 fold change): 0.2455
- Log2(fold changes) aspartate (metabolite aspartate, log2 fold change): 0.0829
- Log2(fold changes) biotin (metabolite biotin, log2 fold change): 0.0000
- Log2(fold changes) cCMP (metabolite cCMP, log2 fold change): 0.0000
- Log2(fold changes) cGMP (metabolite cGMP, log2 fold change): 0.0000
- Log2(fold changes) carnitine (metabolite carnitine, log2 fold change): 0.0000
- Log2(fold changes) citrate/isocitrate (metabolite citrate/isocitrate, log2 fold change): 0.0063
- Log2(fold change) of coenzyme A (metabolite coenzyme A): 0.9119
- Log2(fold change) of cyclic-AMP (metabolite cyclic-AMP): 0.1031
- Log2(fold change) of cytidine (metabolite cytidine): 0.1024
- Log2(fold change) of dAMP (metabolite dAMP): -0.3497
- Log2(fold change) of dATP (metabolite dATP): 0.0366
- Log2(fold change) of dCDP (metabolite dCDP): -0.2652
- Log2(fold change) of dCMP (metabolite dCMP): -0.1471
- Log2(fold change) of dCTP (metabolite dCTP): 0.0304
- Log2(fold change) of dGDP/ADP (metabolite dGDP/ADP): -0.1961
- Log2(fold change) of dGMP/AMP (metabolite dGMP/AMP): -0.3182
- Log2(fold change) of dGTP/ATP (metabolite dGTP/ATP): 0.0666
- Log2(fold change) of dTDP (metabolite dTDP): -0.3263
- Log2(fold change) of dTMP (metabolite dTMP): -0.4999
- Log2(fold change) of dTTP (metabolite dTTP): 0.0866
- Log2(fold change) of dUMP (metabolite dUMP): 0.0000
- Log2(fold change) of dUTP (metabolite dUTP): 0.0000
- Log2(fold change) of deoxyguanosine (metabolite deoxyguanosine): 0.0000
- Log2(fold change) of deoxyinosine (metabolite deoxyinosine): 0.0000
- Log2(fold change) of deoxyribose-phosphate (metabolite deoxyribose-phosphate): 0.0000
- Log2(fold change) of deoxyuridine (metabolite deoxyuridine): 0.0000
- Log2(fold change) of dihydroorotate (metabolite dihydroorotate): 0.1627
- Log2(fold change) of folate (metabolite folate): 0.1440
- Log2(fold change) of fructose-1-6-bisphosphate (metabolite fructose-1-6-bisphosphate): 0.3162
- Log2(fold change) of fructose-6-phosphate (metabolite fructose-6-phosphate): 0.3514
- Log2(fold change) of fumarate (metabolite fumarate): -0.0660
- Log2(fold change) of glucono-lactone (metabolite glucono-lactone): 0.0470
- Log2(fold change) of glucose-1/6-phosphate (metabolite glucose-1/6-phosphate): 0.0000
- Log2(fold change) of glutamate (metabolite glutamate): 0.0411
- Log2(fold change) of glutamine (metabolite glutamine): 0.1003
- Log2(fold change) of glutathione (metabolite glutathione): 0.0000
- Log2(fold change) glutathione disulfide (metabolite glutathione disulfide): -0.3466
- Log2(fold change) glycerate (metabolite glycerate): 0.0000
- Log2(fold change) guanine (metabolite guanine): 0.0000
- Log2(fold change) guanosine (metabolite guanosine): -0.2330
- Log2(fold change) histidine (metabolite histidine): 0.0507
- Log2(fold change) homocysteic acid (metabolite homocysteic acid): 0.0000
- Log2(fold change) hydroxyphenylpyruvate (metabolite hydroxyphenylpyruvate): 0.0000
- Log2(fold change) hydroxyproline/Aminolevulinate (metabolite hydroxyproline/Aminolevulinate): 0.0365
- Log2(fold change) hypoxanthine (metabolite hypoxanthine): 0.0000
- Log2(fold change) indole (metabolite indole): 0.0000
- Log2(fold change) inosine (metabolite inosine): 0.4396
- Log2(fold change) isoleucine (metabolite isoleucine): 0.0740
- Log2(fold change) lactate (metabolite lactate): 0.1682
- Log2(fold change) leucine (metabolite leucine): 0.0991
- Log2(fold change) lysine (metabolite lysine): 0.0854
- Log2(fold change) malate (metabolite malate): -0.0032
- Log2(fold change) maleic acid (metabolite maleic acid): 0.0142
- Log2(fold change) methionine (metabolite methionine): 0.2846
- Log2(fold change) myo-inositol (metabolite myo-inositol): 0.0000
- Log2(fold change) nicotinamide mononucleotide (metabolite nicotinamide mononucleotide): -0.0133
- Log2(fold change) nicotinate (metabolite nicotinate): 0.1646
- Log2(fold change) ornithine (metabolite ornithine): 0.0000
- Log2(fold change) orotate (metabolite orotate): 0.0201
- Log2(fold change) orotidine-5'-phosphate (metabolite orotidine-5'-phosphate): 0.1401
- Log2(fold change) oxaloacetate (metabolite oxaloacetate): 0.0000
- Log2(fold change) p-aminobenzoate (metabolite p-aminobenzoate): 0.0000
- Log2(fold change) p-hydroxybenzoate (metabolite p-hydroxybenzoate): 0.0000
- Log2(fold change) pantothenate (metabolite pantothenate): 0.1559
- Log2(fold change) phenylalanine (metabolite phenylalanine): 0.0217
- Log2(fold change) phenylpyruvate (metabolite phenylpyruvate): 0.0000
- Log2(fold change) phosphoenolpyruvate (metabolite phosphoenolpyruvate): 0.1068
- Log2(fold change) prephenate (metabolite prephenate): 0.0000
- Log2(fold change) proline (metabolite proline): 0.0000
- Log2(fold change) pyridoxine (metabolite pyridoxine): 0.3553
- Log2(fold change) pyruvate (metabolite pyruvate): -0.3114
- Log2(fold change) riboflavin (metabolite riboflavin): 0.0000
- Log2(fold change) ribose (metabolite ribose): 0.0000
- Log2(fold change) ribose-phosphate (metabolite ribose-phosphate): 0.0000
- Log2(fold change) ribulose-5-phosphate (metabolite ribulose-5-phosphate): 0.1038
- Log2(fold change) serine (metabolite serine): 0.2426
- Log2(fold change) sn-glycerol-3-phosphate (metabolite sn-glycerol-3-phosphate): 0.0527
- Log2(fold change) succinate/Methylmalonic acid (metabolite succinate/Methylmalonic acid): -0.0206
- Log2(fold change) succinyl-CoA/methylmalonyl-CoA (metabolite succinyl-CoA/methylmalonyl-CoA): 0.0000
- Log2(fold change) taurine (metabolite taurine): 0.3032
- Log2(fold change) thiamine (metabolite thiamine): 0.1205
- Log2(fold change) threonine/homoserine (metabolite threonine/homoserine): 0.0762
- Log2(fold change) thymidine (metabolite thymidine): 0.0000
- Log2(fold changes) thymine (metabolite thymine, log2 fold change): 0.0000
- Log2(fold changes) trehalose-6-Phosphate (metabolite trehalose-6-Phosphate, log2 fold change): 0.0000
- Log2(fold changes) tryptophan (metabolite tryptophan, log2 fold change): -0.1782
- Log2(fold changes) tyrosine (metabolite tyrosine, log2 fold change): 0.0328
- Log2(fold changes) uridine (metabolite uridine, log2 fold change): 0.0000
- Log2(fold changes) valine (metabolite valine, log2 fold change): 0.0750
- Log2(fold changes) xanthine (metabolite xanthine, log2 fold change): 0.0000
- Log2(fold changes) xanthosine-5-phosphate (metabolite xanthosine-5-phosphate, log2 fold change): 0.2017
- Log2(fold changes) xanthosine (metabolite xanthosine, log2 fold change): -0.1521
- Log2(fold changes) xylose (metabolite xylose, log2 fold change): 0.0000
